This is an account of results in PubChem BioAssay AID248 (DTP/NCI, 2004).

Toxic doses and inconclusive results are not listed.

In this assay the test system is L1210 leukemia ip in BDF1 mice, survival T/C. As to the kind of experiment: NCI In Vivo Anticancer Drug Screen. Data for tumor model L1210 Leukemia (intraperitoneal) in B6D2F1 (BDF1) mice. Particulars: endpoint: mean survival time, higher = longer survival. In outline:
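Each compound was tested against a transplantable tumor grown in mice. The endpoint was survival, with treated animals benchmarked against vehicle controls as a simple ratio.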

Setting [1] is: dose: 75.0 mg/kg/injection, schedule: Q01DX001 (ip), vehicle: saline.
The mark [2] stands for this setting: dose: 150.0 mg/kg/injection, schedule: Q01DX001 (ip), vehicle: saline.
The mark [3] stands for this setting: dose: 300.0 mg/kg/injection, schedule: Q01DX001 (ip), vehicle: saline.
Setting [4] is: dose: 100.0 mg/kg/injection, schedule: Q01DX009 (ip), vehicle: Klucel (hydroxypropylcellulose) (HPC).
Where [5] appears, read: dose: 100.0 mg/kg/injection, schedule: Q04DX003 (ip), vehicle: Klucel (hydroxypropylcellulose) (HPC).
[6] abbreviates: dose: 200.0 mg/kg/injection, schedule: Q01DX009 (ip), vehicle: Klucel (hydroxypropylcellulose) (HPC).
Setting [7] is: dose: 200.0 mg/kg/injection, schedule: Q04DX003 (ip), vehicle: Klucel (hydroxypropylcellulose) (HPC).
[8] abbreviates: dose: 400.0 mg/kg/injection, schedule: Q01DX009 (ip), vehicle: Klucel (hydroxypropylcellulose) (HPC).
Setting [9] is: dose: 400.0 mg/kg/injection, schedule: Q04DX003 (ip), vehicle: Klucel (hydroxypropylcellulose) (HPC).
[10] abbreviates: dose: 100.0 mg/kg/injection, schedule: Q04DX003 (ip), vehicle: saline.
[11] abbreviates: dose: 200.0 mg/kg/injection, schedule: Q04DX003 (ip), vehicle: saline.
Where [12] appears, read: dose: 400.0 mg/kg/injection, schedule: Q04DX003 (ip), vehicle: saline.
Where [13] appears, read: dose: 100.0 mg/kg/injection, schedule: Q01DX Z (ip), vehicle: saline.
The mark [14] stands for this setting: dose: 200.0 mg/kg/injection, schedule: Q01DX Z (ip), vehicle: saline.
Setting [15] is: dose: 100.0 mg/kg/injection, schedule: Q01DX001 (ip), vehicle: carboxymethylcellulose (CMC).
Where [16] appears, read: dose: 200.0 mg/kg/injection, schedule: Q01DX001 (ip), vehicle: carboxymethylcellulose (CMC).
The mark [17] stands for this setting: dose: 400.0 mg/kg/injection, schedule: Q01DX001 (ip), vehicle: carboxymethylcellulose (CMC).
Setting [18] is: dose: 50.0 mg/kg/injection, schedule: Q01DX001 (ip), vehicle: saline.
Setting [19] is: dose: 100.0 mg/kg/injection, schedule: Q01DX001 (ip), vehicle: saline.
Where [20] appears, read: dose: 200.0 mg/kg/injection, schedule: Q01DX001 (ip), vehicle: saline.
Setting [21] is: dose: 400.0 mg/kg/injection, schedule: Q01DX001 (ip), vehicle: saline.

For `O=C(O)c1ccc(OCCc2ccccc2)cc1`, the T/C was 98 % of control under setting [1]; 103 % of control (dose: 75.0 mg/kg/injection, schedule: Q04DX003 (ip), vehicle: saline); 98 % of control under setting [2]; 98 % of control (dose: 150.0 mg/kg/injection, schedule: Q04DX003 (ip), vehicle: saline); 95 % of control under setting [3]; 93 % of control (dose: 300.0 mg/kg/injection, schedule: Q04DX003 (ip), vehicle: saline).
Turning to `CC1NC(=O)NC1=O` (stereo not given), the T/C is, setting by setting: under setting [4], 103 % of control; under setting [5], 98 % of control; under setting [6], 95 % of control; under setting [7], 98 % of control; under setting [8], 100 % of control; under setting [9], 101 % of control.
`NCCc1ccc(Nc2ccnc3cc(Cl)ccc23)cc1`: the T/C under setting [1] is 109 % of control, the T/C under setting [2] is 101 % of control and the T/C under setting [3] is 98 % of control.
Regarding `Nc1cc(=S)c2[nH]cnc2[nH]1`, the T/C (dose: 100.0 mg/kg/injection, schedule: Q01DX001 (ip), vehicle: Klucel (hydroxypropylcellulose) (HPC)) is 92 % of control and the T/C (dose: 400.0 mg/kg/injection, schedule: Q01DX001 (ip), vehicle: Klucel (hydroxypropylcellulose) (HPC)) was 88 % of control.
Consider `Nc1nc(Cl)c2[nH]cnc2n1`, for which the T/C (dose: 0.25 mg/kg/injection, schedule: Q01DX009 (ip), vehicle: saline with Tween-80) was 110 % of control; the T/C (dose: 0.5 mg/kg/injection, schedule: Q01DX009 (ip), vehicle: saline with Tween-80) was 112 % of control; the T/C (dose: 1.0 mg/kg/injection, schedule: Q01DX009 (ip), vehicle: saline with Tween-80) was 117 % of control; the T/C (dose: 6.0 mg/kg/injection, schedule: Q01DX009 (ip), vehicle: saline with Tween-80) was 150 % of control; the T/C (dose: 8.8 mg/kg/injection, schedule: Q04DX003 (ip), vehicle: saline with Tween-80) is 112 % of control; the T/C (dose: 13.0 mg/kg/injection, schedule: Q01DX009 (ip), vehicle: Klucel (hydroxypropylcellulose) (HPC)) is 99 % of control. For the same molecule, the T/C is, setting by setting: (dose: 20.0 mg/kg/injection, schedule: Q01DX009 (ip), vehicle: Klucel (hydroxypropylcellulose) (HPC)) 101 % of control; (dose: 30.0 mg/kg/injection, schedule: Q01DX009 (ip), vehicle: Klucel (hydroxypropylcellulose) (HPC)) 101 % of control; (dose: 30.0 mg/kg/injection, schedule: Q04DX003 (ip), vehicle: saline with Tween-80) 195 % of control; (dose: 37.5 mg/kg/injection, schedule: Q04DX009 (ip), vehicle: Klucel (hydroxypropylcellulose) (HPC)) 94 % of control; (dose: 44.0 mg/kg/injection, schedule: Q01DX009 (ip), vehicle: Klucel (hydroxypropylcellulose) (HPC)) 100 % of control; (dose: 50.0 mg/kg/injection, schedule: Q01DX009 (ip), vehicle: saline with Tween-80) 107 % of control. Moreover, the T/C by setting is: (dose: 66.0 mg/kg/injection, schedule: Q01DX009 (ip), vehicle: Klucel (hydroxypropylcellulose) (HPC)) 104 % of control; (dose: 75.0 mg/kg/injection, schedule: Q04DX009 (ip), vehicle: Klucel (hydroxypropylcellulose) (HPC)) 104 % of control; (dose: 100.0 mg/kg/injection, schedule: Q01DX009 (ip), vehicle: saline with Tween-80) 124 % of control; (dose: 150.0 mg/kg/injection, schedule: Q04DX009 (ip), vehicle: Klucel (hydroxypropylcellulose) (HPC)) 97 % of control.
With `C/C(=C(/CCO)SCCC(=O)c1ccc(C)cc1)N(C=O)Cc1cnc(C)nc1N`, the T/C is 97 % of control under setting [10], 97 % of control under setting [11] and 93 % of control under setting [12].
Regarding `O=C1CCC(=O)N1O`, the T/C reads like this: (dose: 50.0 mg/kg/injection, schedule: Q01DX Z (ip), vehicle: saline) 94 % of control; (dose: 100.0 mg/kg/injection, schedule: Q01DX009 (ip), vehicle: saline) 93 % of control; under setting [13], 93 % of control; (dose: 200.0 mg/kg/injection, schedule: Q01DX009 (ip), vehicle: saline) 90 % of control; under setting [14], 96 % of control; (dose: 400.0 mg/kg/injection, schedule: Q01DX009 (ip), vehicle: saline) 92 % of control. Also, the T/C (dose: 400.0 mg/kg/injection, schedule: Q01DX Z (ip), vehicle: saline) was 93 % of control.
On to `O=C(NC1CCCCC1)OCCOc1ccccc1`, for which the T/C is, setting by setting: under setting [4], 95 % of control; under setting [6], 103 % of control; under setting [8], 97 % of control.
With `COc1ccc(CCN=Cc2ccc3c(c2)Cc2ccccc2-3)cc1OC`, the T/C is 105 % of control under setting [10], 108 % of control under setting [11] and 90 % of control under setting [12].
Consider `O=C(Nc1ccccc1Cl)NC1CCCCC1`, for which the T/C is, setting by setting: under setting [4], 100 % of control; (dose: 100.0 mg/kg/injection, schedule: Q04DX002 (ip), vehicle: Klucel (hydroxypropylcellulose) (HPC)) 95 % of control; under setting [6], 97 % of control; (dose: 200.0 mg/kg/injection, schedule: Q04DX002 (ip), vehicle: Klucel (hydroxypropylcellulose) (HPC)) 100 % of control; under setting [8], 91 % of control; (dose: 400.0 mg/kg/injection, schedule: Q04DX002 (ip), vehicle: Klucel (hydroxypropylcellulose) (HPC)) 95 % of control.
Turning to `O=C(Nc1ccccc1)c1ccccc1`, the T/C is 97 % of control under setting [5], 94 % of control under setting [7] and 103 % of control under setting [9].
`O=C(N/N=C/c1ccc2c(c1)OCO2)c1ccc([N+](=O)[O-])cc1`: the T/C is, setting by setting: (dose: 50.0 mg/kg/injection, schedule: Q01DX001 (ip), vehicle: carboxymethylcellulose (CMC)) 97 % of control; under setting [15], 92 % of control; under setting [16], 94 % of control; under setting [17], 92 % of control.
Turning to `CCCC1(CC)CNC(=O)NC1=O` (stereo not given), the T/C under setting [13] was 97 % of control and the T/C under setting [14] is 92 % of control.
For the molecule `CC(Cl)CN(Cc1c(O)ccc2ccccc12)CC(C)Cl` (stereo not given), the T/C reads like this: under setting [15], 96 % of control; under setting [16], 107 % of control; under setting [17], 101 % of control.
With `OC(CNc1ccccc1)CN1CCN(CC(O)CNc2ccccc2)CC1` (stereo not given), the T/C is 105 % of control under setting [18], 98 % of control under setting [19] and 94 % of control under setting [20].
In the case of `Cc1ccc(S(=O)(=O)OCC2OC(n3cnc4c(=O)[nH]cnc43)C3OC(C)(C)OC23)cc1` (stereo not given), the T/C runs as follows: (dose: 100.0 mg/kg/injection, schedule: Q01DX005 (ip), vehicle: saline) 103 % of control; (dose: 200.0 mg/kg/injection, schedule: Q01DX005 (ip), vehicle: saline) 103 % of control.
For `CCCCC(CC)(CCN)CCCC`, the T/C (dose: 5.0 mg/kg/injection, schedule: Q01DX001 (ip), vehicle: carboxymethylcellulose (CMC)) is 102 % of control; the T/C (dose: 10.0 mg/kg/injection, schedule: Q01DX001 (ip), vehicle: carboxymethylcellulose (CMC)) is 104 % of control; the T/C (dose: 20.0 mg/kg/injection, schedule: Q01DX001 (ip), vehicle: carboxymethylcellulose (CMC)) is 91 % of control.
For `c1ccc(N=C(c2ccccc2)c2ccccc2)cc1`, the T/C by setting is: under setting [18], 102 % of control; under setting [19], 98 % of control; under setting [20], 98 % of control; under setting [21], 102 % of control.
With `O=c1c(O)c(-c2ccc(Cl)cc2)oc2ccccc12`, the T/C by setting is: under setting [18], 87 % of control; under setting [19], 93 % of control; under setting [20], 93 % of control; under setting [21], 98 % of control.
Regarding `CCCCN(CCCC)CCSc1c(Cl)c(Cl)c(Cl)c(Cl)c1Cl`, the T/C (dose: 320.0 mg/kg/injection, schedule: Q01DX Z (ip), vehicle: saline) is 99 % of control and the T/C (dose: 480.0 mg/kg/injection, schedule: Q01DX Z (ip), vehicle: saline) was 90 % of control.
